Consider 1 compound from patent publication US6175020A, “Spirodiamino acid scaffold for combinatorial synthesis” (Pharmacopeia, Inc., priority 1999, dated 2001).

The target of this experiment is plasmepsin II (Plasmodium falciparum, UniProt P46925). The experiment is described as follows: Biological Assay for Plasmepsin II (EDANS fluorescence). Format: biochemical. The conditions noted are these: 4 nM plasmepsin II, 6 μM plasmepsin substrate, pH 5.0, 10 minutes at 25° C. How it is done:
Biological Assay for Plasmepsin II
The assay mix contained 50 mM sodium acetate (pH 5.0), 1 mg/ml BSA, 0.01% Tween 20, 12.5% glycerol, 18% DMSO and 12 μM plasmepsin substrate. Twenty five μL of the assay mix is added to each well of the 96-well microtiter plate containing dried down bead eluate or empty control wells. The plates are then sonicated and mixed. Then 25 μL of 8 nM plasmepsin II which is in 50 mM sodium acetate (pH 5.0), 1 mg/ml BSA, 0.01% Tween 20, and 12.5% glycerol, is added to the assay mix. The final concentrations are 4 nM plasmepsin II, 6 μM plasmepsin substrate, 9% DMSO, 50 mM sodium acetate (pH 5.0), 1 mg/ml BSA, 0.01% Tween 20, and 12.5% glycerol. The reaction is incubated for 10 minutes at 25° C. and then quenched by the addition of 25 μL of 1 M Tris (pH 8.5) and 50% DMSO to achieve a final concentration of 0.33 M Tris and 23% DMSO. The EDANS fluorescence was measured using the Tecan, SLT FLUOSTAR® fluorescence plate reader with an excitation filter of 350 nm and an emission filter 510 nm. The background was determined by 25 μL of 50 mM sodium acetate (pH 5.0), 1 mg/ml BSA, 0.01% Tween 20, and 12.5% glycerol without enzyme. Compound 23 was active at <1 millimolar concentration.

The structures appear in SMILES notation. A value given as a limit tells only on which side of the number the result lay.

Sequence of plasmepsin II (P46925 125-453): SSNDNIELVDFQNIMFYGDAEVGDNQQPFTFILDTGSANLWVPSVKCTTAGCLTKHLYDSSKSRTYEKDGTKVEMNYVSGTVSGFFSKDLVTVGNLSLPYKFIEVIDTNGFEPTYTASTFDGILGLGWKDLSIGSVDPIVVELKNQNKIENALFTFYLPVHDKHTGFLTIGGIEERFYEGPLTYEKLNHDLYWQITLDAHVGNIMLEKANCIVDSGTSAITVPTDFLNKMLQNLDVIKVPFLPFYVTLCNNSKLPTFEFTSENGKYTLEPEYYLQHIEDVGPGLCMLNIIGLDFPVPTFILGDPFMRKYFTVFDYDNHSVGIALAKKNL

One may read the IC50 as the point on the concentration scale where inhibition reaches its midpoint. On to `C=CCOC(=O)N1C(CC(=O)NCCc2cc(OC)cc(OC)c2)CCC12CCCC2CNC(=O)C[C@H](O)[C@H](CC(C)C)NC(=O)OC(C)(C)C` (relative stereo) [Compound 23], for which the “concentration at which compound was active” value is listed as under 1 millimolar. For the setting “read-out: IC50 (plasmepsin inhibitor)”, the concentration for half-maximal inhibition (IC50) was under 1000 µM.
